# Residue numbers refer to the chain shown, from its start. Names and notes keep the numbering of the source.
# T1: phosphorylated Dictyostelium wild type NDP kinase (Dictyostelium discoideum, UniProt P22887)
# T1 construct: made in house
# T1 sequence (P22887 1-155): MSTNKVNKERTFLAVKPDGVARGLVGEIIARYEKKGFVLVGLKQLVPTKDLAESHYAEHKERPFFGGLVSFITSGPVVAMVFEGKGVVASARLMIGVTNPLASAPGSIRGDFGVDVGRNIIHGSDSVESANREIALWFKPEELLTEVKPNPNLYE
# B1: N119S: Dd NDP kinase mutated at position 119, asparagine to serine; SEQ ID NO: 1 (protein, UniProt P22887 1-155, looked up, variant N119S)
# Nucleoside diphosphate …: T1 sequence (P22887 1-155) with N119S
# Key:
# [1] = test system: E. coli BL21 (DE3) cells transformed with pJC20; assay: AZT sensitivity of E. coli transformed with plasmid without insertion; type: cell-based; settings: versus bacteria expressing NDPK-A, N115S-NDPK-A and L55H-N115S-NDPK-A, range tested
# Protocol: (§12) The cells were grown at 37° C. in exponential phase in minimum medium. They were then complemented with various concentrations of AZT, and turbidity at 600 nm was measured after 4H. Transformation with the vector without insertion served as a control.
# (§13) Wild type and mutated NDP kinases were overexpressed in E. coli cells, and the sensitivity of exponentially growing cells to AZT was assayed after induction of NDP kinase expression by IPTG. The viability was estimated by plating and counting the cells.
# (§14) The sensitivity to AZT of E. coli transformed with NDP kinase expression vectors was evaluated. Bacteriea BL21 (DE3) (Stratagene) were transformed by heat shock with pJC20 vectors (Schaertl, 1998) expressing either the wild type NDPK-A (pJC20-HA), the mutant enzyme N115S (pJC20-N115S), the double mutant enzyme L55H-N115S (pJC20-L55H-N115S), or without insertion (pJC20). Bacteria were grown at 37° C. in M9 liquid medium supplemented with casaminoacids (Dilco ref.) in exponential phase, then 10 μM IPTG was added. After 1 hour, cells were complemented with AZT from 10^−7 mg/mL to 10^−4 mg/mL for 4 hours. One mL of bacteria was plated onto LB agar, incubated overnight at 37° C., and counted.
# [2] = test system: E. coli BL21 (DE3) cells expressing L55H-N115S NDPK-A
# Protocol: as §12, §13, §14
# [3] = biological target: T2, human NDP kinase A (NDPK-A) variant L55H-N115S, SEQ ID NO: 3 (Homo sapiens, UniProt P15531, L55H/N115S); assay: Pre-steady-state phosphotransfer, fluorescence stopped-flow; type: biochemical; settings: substitution of Asn 115 for Ser and Leu 55 for His
# T2 construct: made in house; host or cells: E. coli
# T2 sequence (P15531 whole entry L55H/N115S): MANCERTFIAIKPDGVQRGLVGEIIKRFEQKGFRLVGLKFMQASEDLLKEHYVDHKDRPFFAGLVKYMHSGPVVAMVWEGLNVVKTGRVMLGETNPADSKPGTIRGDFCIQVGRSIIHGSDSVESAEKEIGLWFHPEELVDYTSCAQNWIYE
# Protocol: (§1) FIG. 3 depicts the catalytic efficiency of NDPK-A and mutants for nucleoside analogs. The rates of phosphorylation of pure recombinant NDP kinases (1 μM) were measured at the pre-steady state in a fluorescence stopped-flow with d4T-TP (10 to 80 μM). The catalytic efficiency (expressed in M^−1s^−1) was determined from the variation of the rate as a function of analog as shown in FIG. 2 (▾, NDPK-A, ♦ L55H, ● N115S, ▪ L55H-N115S).
# (§2) The activity assays were performed at the pre-steady state level.
# (§3) R, the specificity change, is the ratio of the catalytic efficiencies (for analog versus natural nucleotide) of the mutant compared to the wild type enzyme.
# (§4) Wild type human NDPK-A and the mutants were expressed and purified according to Schneider et al., 2000, Mol Pharm. Recombinant wild type and mutant Dd-NDPK were obtained as described (Schneid, 1998a), except for N119Y NDP kinase which was partially purified by Q sepharose FF chromatography. Each protein was characterized by […] electrophoresis. The concentration of 17 kDa subunits of the enzyme was either determined by Bradford assay ([…]) or using an absorbance coefficient of ΔA^280=1.249 for a 1 mg/mL solution of human wild type and N115S NDPK-A, and =0.55 for wild type and mutant N119S, N119T Dd-NDP kinases, respectively.
# (§5) As the diphosphate form of analogs were not always available, the triphosphate analogs were used to study phosphate transfer in reaction as in Scheme I. Experiments were performed with an Hi-Tech DX2 microvolume stopped-flow reaction (Schneider, 1998) at Aexc=296 nm (for Ado derivatives) or […] (for other nucleotides), 2 mm excitation slit and a 320 nm cutoff filter at the emission. After mixing NDPK (1 μM) and NTP or an analogTP (10-500 μM), the intrinsic protein fluorescence was recorded for 10-200 sec. In each experiment, 400 pairs of data were recorded, and the data from 3-4 identical experiments were averaged and fitted to a number of non-linear analytical equations using the software provided by Hi-Tech.
# (§6) The data were analyzed using the reaction scheme: [drawing 1]
# (§7) In both the forward and the reverse reactions, the product concentration remains very low, thus the product binding can be neglected, and the observed single step could be attributed to the phosphotransfer (Schneider, 1998). The rate of this observed single step is: [formula]
# and reaches a limiting value (k+2) at NTP saturation. […] Therefore, catalytic efficiencies of phosphorylation (CEphos=k+2/(k−1/k+1)=k+2/KS) were measured, which are equivalent to second order constants and allow a reliable comparison of a variety of NDP kinase substrates.
# [4] = biological target: T3, phosphorylated Dictyostelium N119S NDP kinase (Dictyostelium discoideum, UniProt P22887, N119S); assay: Stopped-flow kinetics of phosphorylated enzyme with Acy-DP, N119S; type: biochemical
# T3 construct: made in house
# T3 sequence (P22887 whole entry N119S): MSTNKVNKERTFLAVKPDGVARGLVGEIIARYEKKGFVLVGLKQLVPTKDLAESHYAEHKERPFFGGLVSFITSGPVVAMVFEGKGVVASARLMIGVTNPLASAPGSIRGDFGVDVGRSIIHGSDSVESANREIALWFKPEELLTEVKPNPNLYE
# Protocol: (§8) (A) Kinetics of reaction of phosphorylated Dictyostelium wild type and N119S NDP kinases by 100 μM Acyclovir diphosphate (Acy-DP). The phosphorylated enzyme was prepared with a stoichiometry #1 as described (Deville-Bonne 1996). The kinases were preincubated with ATP in excess in buffer T (50 mM Tris-HCl, pH 7.5, 5 mM MgCl2 and 75 mM KCl). The increase in fluorescence upon mixing the phospho-enzyme (1 μM, final concentration) with Acy-DP in buffer T at 20° C. was monitored with a stopped-flow. The solid lines represent the best fit of each curve to a monoexponential.
# (§9) (B) Concentration dependence of the rate constant on Acy-DP concentation. The pseudo-first order rate constant for the reaction (kobs) was plotted against Acy-DP.
# Acyclovir is an acyclic nucleoside analog of Gua used against Herpes Simplex Virus.
# [5] = biological target: T1, phosphorylated Dictyostelium wild type NDP kinase; assay: Stopped-flow kinetics of phosphorylated enzyme with Acy-DP, wild type; type: biochemical; settings: phospho-enzyme 1 μM, buffer T, 20° C.
# Protocol: as §8, §9
# [6] = biological target: T4, Dictyostelium discoideum NDP kinase (Dd-NDPK) variant N119S, SEQ ID NO: 1 (Dictyostelium discoideum, UniProt P22887, N119S); assay: Pre-steady-state phosphotransfer, fluorescence stopped-flow; type: biochemical
# T4 construct: made in house
# T4 sequence (P22887 whole entry N119S): as above
# Protocol: as §8, §9
# All numbers in italics have already been published (Schneider, 1998, 2000) The kinetic constants were measured at the pre-steady-state level using a fluorescence stopped-flow device. The binding constants were determined at equilibrium by recording the increase in fluorescence (Schneider, 2000). Values are the average of three independent determinations.
# as §4
# as §5, with “Hi-Tech. All curves fitted to single exponentials.” for “Hi-Tech.”
# as §6, §7
# and reaches a limiting value (k+2) at NTP saturation. Saturation could not be obtained with the concentrations of any NTP used here. Therefore, catalytic efficiencies of phosphorylation (CEphos=k+2/(k−1/k+1)=k+2/KS) were measured, which are equivalent to second order constants and allow a reliable comparison of a variety of NDP kinase substrates.
# [7] = biological target: T5, Dictyostelium discoideum NDP kinase (Dd-NDPK) variant N119T (Dictyostelium discoideum, UniProt P22887, N119T); assay: Steady-state kinetics with ATP and dTDP, coupled enzymes; reactivity for analogs; type: biochemical; settings: dTDP
# T5 construct: made in house
# T5 sequence (P22887 whole entry N119T): as the sequence (P22887 whole entry N119S) above, with S119T counted along it
# Protocol: (§10) First, by site-directed mutagenesis, a limited set of amino acid substitutions (Ser, Thr, or Tyr) at the position of Asn 119 were introduced into the active site of Dd-NDPK. The three mutant proteins were expressed and purified to homogeneity, except N119Y, which was found unstable and poorly active (0.05% of wild type activity).
# (§11) The activity of NDP kinase was measured at 20° C. with ATP and dTDP as substrates using coupled enzymes (pyruvate kinase and lactate dehydrogenase) (Lascu 1993). One unit is the amount of enzyme that catalyzes the phosphotransfer of 1 μmol/min under standard conditions: [ATP]=1 mM, [dTDP]=0.2 mM. Rate constants (kcat) and Michaelis constants (Km) were determined from initial velocities for two different constant ratios of nucleotide [dTDP]/[ATP]=0.05 0.1 with [ATP] varying from 0.2 to 2 mM. kcat is expressed by enzyme subunit. The ratio of the ^apparentkcat/^apparentKM at a given concentration of the other substrate is equal to the true value of kcat/KM for a ping-pong enzyme.
# [8] = biological target: T4, Dictyostelium discoideum NDP kinase (Dd-NDPK) variant N119S, SEQ ID NO: 1; assay: Steady-state kinetics with ATP and dTDP, coupled enzymes; type: biochemical; settings: dTDP
# Protocol: as §10, §11
# [9] = Human NDPK-A mutants, summary over several nucleotide analogs compared to natural nucleotides; type: biochemical
# Protocol: as §2, §3
# The mutants described so far show altered specificity for antiviral drugs and natural nucleotides. Such a switch is usually defined as R, the specificity change, reflecting the ability of a mutant enzyme to prefer the analog rather than the natural nucleotide according to the expression: [formula]
# where R is the ratio of the specificity factors of the mutant compared to the original enzyme, with the specificity factor of an enzyme being defined as the ratio of the catalytic efficiencies (CE=k2/KS) for a nucleotide analog and the natural nucleotide.
# [10] = Pre-steady-state phosphotransfer of human NDPK-A and mutants with d4T-TP; type: biochemical; settings: ratio of catalytic efficiencies
# Protocol: as §1
# The intrinsic fluorescence properties of the three mutants were not affected by the mutations and were quenched upon phosphorylation of the catalytic His, as observed with wild type NDP kinase (Deville-Bonne, 1996). […]
# as §5, with “Hi-Tech. […]” for “Hi-Tech.”
# [11] = Steady-state NDP kinase activity, coupled enzymes (pyruvate kinase, lactate dehydrogenase); type: biochemical; settings: for specific activity: standard conditions: [ATP]=1 mM, [dTDP]=0.2 mM, 20° C.
# Protocol: as §11
# [12] = Reactivity of Dd-NDPK Asn 119 mutants for nucleotide analogs; type: biochemical; settings: Dd-NDPK mutant versus wild type
# Description: as §10
# [13] = identical concentrations of Acy-DP
molecule,measurement,setting,value
Cc1cn([C@H]2C[C@H](N=[N+]=[N-])[C@@H](CO)O2)c(=O)[nH]c1=O [AZT],sensitivity to AZT,[1],less sensitive to AZT
same,viable cells,"[2]; AZT 5 and 10 ng/ml, double mutant versus wild type enzyme or N115S mutant",fewer viable cells
same,sensitization to AZT,[2]; E. coli transfected with the double mutant enzyme,increased sensitization to AZT
same,enhancement of ability to phosphorylate,[3],200-300 times
"Nc1nc2c(ncn2COCCOP(=O)(O)OP(=O)(O)O)c(=O)[nH]1 [Acy-DP, Acyclovir diphosphate]",times faster phosphorylation by N119S NDP kinase than wild type enzyme,[4]; [13],seven
same,"apparent second order constant, N119S mutant","[4]; phospho-enzyme 1 μM, buffer T, 20° C.","4,500 M^−1s^−1"
same,"apparent second order constant, wild type NDP kinase",[5],670 M⁻¹ s⁻¹
same,improvement of catalytic efficiency of phosphorylation by the mutation,[6]; from [Acy-DP] dependency of kobs,seven fold
same,phosphorylation rate relative to wild type enzyme,[6]; [13],seven times faster
Cc1cn([C@H]2C[C@H](O)[C@@H](COP(=O)(O)OP(=O)(O)O)O2)c(=O)[nH]c1=O [dTDP],"kcat, times lower than wild type enzyme",[7],three
same,effect on KM,[7]; versus wild type,little effect on KM
same,"kcat, times lower than wild type enzyme",[8],ten times lower
same,effect on KM,[8]; versus wild type,little effect on KM
"L55H-N115S: double mutant human NDPK-A, Leu 55 to His and Asn 115 to Ser; SEQ ID NO: 3",increment in activity with analogs versus NDPK-A,[9]; catalytic efficiencies of Table II,80-100 fold
same,times more slowly / fold less reaction with d4T-TP than with dTTP,[10],eight
same,specific activity,[11],240 U/mg
N115S: human NDPK-A with Asn 115 changed into Ser; SEQ ID NO: 2,"specificity change (R), switch in specificity over analogs","[9]; analog versus natural nucleotide, mutant versus NDPK-A",around 100
same,steady-state activity relative to NDPK-A,[11]; ATP and dTDP,1/10
same,specific activity,[11],140 U/mg
B1,"catalytic constant kcat, times lower than the wild type enzyme","[11]; natural substrates such as dTDP, steady state, Dd-NDPK",ten
same,enzyme reactivity for analogs,[12],improvement

# Source: patent US20030207830A1, “Mutant NDP kinases for antiviral nucleotide analog activation and therapeutic uses thereof” (priority 2002, published 2003)
